The test system of assay [1] is Phosphorylation of ERK1/2 in MIA PaCa-2 cells. The assay is described as follows: Phospho-ERK1/2 MSD assay in MIA PaCa-2 cells. It is filed as cell-based. As to conditions: read-out: p-ERK IC50 (2 h; MIA PaCa-2), 2 h compound treatment. The method in brief: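 Following a 2 or 4 h incubation with titrated compound, cells receive a 10 min pulse of 10 ng/mL EGF. Phospho-ERK1/2 in RIPA lysates is then quantified by MSD immunoassay, and IC50 values come from a four-parameter logistic model.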

The target in assay [2] is GDP-bound KRAS protein (aa 1-169), containing both G12C and C118A amino acid substitutions (Homo sapiens, UniProt P01116, C118A/G12C). The assay is described as follows: Coupled nucleotide exchange assay (SOS-mediated, AlphaScreen). In kind it is biochemical. The settings on record: 5 min compound pre-incubation. In general terms: In Alpha technology, singlet oxygen from a donor bead excites a nearby acceptor bead.

Read-outs that look alike come from different tables or passages of the source.

Sequence of GDP-bound KRAS protein (aa 1-169), containing both G12C and C118A amino acid substitutions (P01116 1-169 isoform P01116-2 G12C/C118A): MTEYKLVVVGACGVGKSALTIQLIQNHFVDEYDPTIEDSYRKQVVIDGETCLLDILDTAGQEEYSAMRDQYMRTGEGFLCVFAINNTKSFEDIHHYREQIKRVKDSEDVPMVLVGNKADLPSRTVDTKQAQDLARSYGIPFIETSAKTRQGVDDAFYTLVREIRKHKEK

Usually IC50 stands for the concentration that gives 50% inhibition. As for `C=CC(=O)N1CCN(c2nc(=O)n(-c3c(O)cccc3C(C)C)c3nc(-c4ccccc4F)c(Cl)cc23)[C@@H](C)C1` [Example 55-26, 6-chloro-7-(2-fluorophenyl)-1-(2-hydroxy-6-(2-propanyl)phenyl)-4-((2S)-2-methyl-4-(2-propenoyl)-1-piperazinyl)pyrido[2,3-d]pyrimidin-2(1H)-one], the IC50 in assay [1] (Homo sapiens, MIA PaCa-2, 2 h) turned out to be 215 nM. Besides, the “Coupled exchange IC50 (5 min)” value in assay [2] is reported as 0.091 | nda μM.

Take `C=CC(=O)N1CCN(c2nc(=O)n(-c3c(C)ccnc3CC)c3nc(-c4c(O)cccc4F)c(Cl)cc23)[C@@H](C)C1` [Example 55-10, 6-chloro-1-(2-ethyl-4-methyl-3-pyridinyl)-7-(2-fluoro-6-hydroxyphenyl)-4-((2S)-2-methyl-4-(2-propenoyl)-1-piperazinyl)pyrido[2,3-d]pyrimidin-2(1H)-one]: the half-inhibitory concentration (IC50) in assay [1] (Homo sapiens, MIA PaCa-2, 2 h) turned out to be 156 nM. Moreover, the “Coupled exchange IC50 (5 min)” value in assay [2] is reported as 0.123 | nda μM.

For the compound `C=CC(=O)N1CCN(c2nc(=O)n(-c3c(C)ccnc3C(C)C)c3nc(-c4ccccc4F)c(C)cc23)[C@@H](C)C1` (single isomer, unassigned) [Example 74-2-1], the IC50 in assay [1] is 136 nM. For the same compound, in assay [2], the “Coupled exchange IC50 (5 min)” value is listed as 0.26 | nda μM.

On to `C=CC(=O)N1CCN(c2nc(=O)n(-c3ccccc3C(C)C)c3nc(-c4cc(N)ccc4Cl)c(Cl)cc23)[C@@H](C)C1` (single isomer, unassigned) [Example 56-7-2], for which the 50% inhibitory concentration (IC50) in assay [1] is 134 nM. Also, in assay [2], the “Coupled exchange IC50 (5 min)” value is given as 0.676 | nda μM.

With `C=CC(=O)N1CCN(c2nc(=O)n(-c3c(C)cc(CO)cc3C(C)C)c3nc(-c4ccccc4F)c(Cl)cc23)[C@@H](C)C1` [80-2, 6-chloro-7-(2-fluorophenyl)-1-(4-(hydroxymethyl)-2-methyl-6-(2-propanyl)phenyl)-4-((2S)-2-methyl-4-(2-propenoyl)-1-piperazinyl) pyrido[2,3-d] pyrimidin-2(1H)-one], in assay [1] (Homo sapiens, MIA PaCa-2, 2 h), the IC50 was 97 nM. The “Coupled exchange IC50 (5 min)” value in assay [2] is listed as 0.11 | nda μM.

Take `C=CC(=O)N1CCN(c2nc(=O)n(-c3cccnc3C(C)C)c3nc(-c4c(O)cccc4F)c(Cl)cc23)[C@@H](C)C1` (single isomer, unassigned) [Example 54-11-2]: in assay [1], the IC50 is 174 nM. For the same compound, in assay [2], the “Coupled exchange IC50 (5 min)” value was 0.343 | nda μM.

As for `C=CC(=O)N1CCN(c2nc(=O)n(-c3ccccc3C(C)C)c3nc(-c4cc(N)ccc4Cl)c(Cl)cc23)[C@@H](C)C1` (single isomer, unassigned) [Example 56-7-1], the IC50 in assay [1] came to 29 nM. Besides, the “Coupled exchange IC50 (5 min)” value in assay [2] is listed as 0.079 | nda μM.

Take `C=CC(=O)N1C[C@H](C)N(c2nc(=O)n(-c3c(C)ccnc3C(C)C)c3nc(-c4c(N)cccc4F)c(F)cc23)[C@@H](C)C1` (atropisomer, axis not shown; (M)) [Example 72-13, (M)-7-(2-amino-6-fluorophenyl)-4-((2S,6S)-2,6-dimethyl-4-(2-propenoyl)-1-piperazinyl)-6-fluoro-1-(4-methyl-2-(2-propanyl)-3-pyridinyl)pyrido[2,3-d]pyrimidin-2(1H)-one]: in assay [1] (Homo sapiens, MIA PaCa-2, 2 h), the half-maximal inhibitory concentration (IC50) came to 12 nM. Moreover, the “Coupled exchange IC50 (5 min)” value in assay [2] is on record as 0.021 | nda μM.

As to `C=CC(=O)N1CCN(c2nc(=O)n(-c3c(C)ccnc3C(C)C)c3nc(-c4cc(C5CC5)ccc4F)c(Cl)cc23)[C@@H](C)C1` (atropisomer, axis not shown; (M)) [Example 73-9, (M)-6-chloro-7-(5-cyclopropyl-2-fluorophenyl)-1-(4-methyl-2-(2-propanyl)-3-pyridinyl)-4-((2S)-2-methyl-4-(2-propenoyl)-1-piperazinyl)pyrido[2,3-d]pyrimidin-2(1H)-one], the IC50 in assay [1] (Homo sapiens, MIA PaCa-2, 2 h) was determined as 281 nM. Further, the “Coupled exchange IC50 (5 min)” value in assay [2] is listed as 0.06 | nda μM.

Regarding `C=CC(=O)N1CCN(c2nc(=O)n(-c3c(C)ccnc3CC)c3nc(-c4c(O)cccc4F)c(F)cc23)[C@@H](C)C1` [Example 57-1, 1-(2-Ethyl-4-methyl-3-pyridinyl)-6-fluoro-7-(2-fluoro-6-hydroxyphenyl)-4-((2S)-2-methyl-4-(2-propenoyl)-1-piperazinyl)pyrido[2,3-d]pyrimidin-2(1H)-one], the IC50 in assay [1] (Homo sapiens, MIA PaCa-2, 2 h) was found to be 171 nM. Besides, the “Coupled exchange IC50 (5 min)” value in assay [2] is given as 0.835 | nda μM.

Regarding `C=CC(=O)N1C[C@H](C)N(c2nc(=O)n(-c3c(C)ccnc3C(C)C)c3nc(-c4c(O)cccc4F)c(Cl)cc23)[C@@H](C)C1` (atropisomer, axis not shown; (M)) [Example 73-16, (M)-6-chloro-4-((2S,6S)-2,6-dimethyl-4-(2-propenoyl)-1-piperazinyl)-7-(2-fluoro-6-hydroxyphenyl)-1-(4-methyl-2-(2-propanyl)-3-pyridinyl)pyrido[2,3-d]pyrimidin-2(1H)-one], the concentration for half-maximal inhibition (IC50) in assay [1] (Homo sapiens, MIA PaCa-2, 2 h) was found to be 7 nM. Also, the “Coupled exchange IC50 (5 min)” value in assay [2] is 0.019 | nda μM.

Consider `C=CC(=O)N1CCN(c2nc(=O)n(-c3c(C4CC4)ccnc3C)c3nc(-c4c(O)cccc4F)c(F)cc23)[C@@H](C)C1` [Example 58-19, 1-(4-cyclopropyl-2-methyl-3-pyridinyl)-6-fluoro-7-(2-fluoro-6-hydroxyphenyl)-4-((2S)-2-methyl-4-(2-propenoyl)-1-piperazinyl)pyrido[2,3-d]pyrimidin-2(1H)-one], for which, in assay [1] (Homo sapiens, MIA PaCa-2, 2 h), the half-inhibitory concentration (IC50) turned out to be 957 nM. The “Coupled exchange IC50 (5 min)” value in assay [2] is on record as 0.44 | nda μM.

Turning to `C=CC(=O)N1CCN(c2nc(=O)n(-c3c(C)ccnc3C(C)C)c3nc(-c4c(O)cccc4F)c(F)cc23)[C@@H](C(F)F)C1` (single isomer, unassigned) [Example 75-9-2, (M)-4-((2S or 2R)-2-(difluoromethyl)-4-(2-propenoyl)-1-piperazinyl)-6-fluoro-7-(2-fluoro-6-hydroxyphenyl)-1-(4-methyl-2-(2-propanyl)-3-pyridinyl)pyrido[2,3-d]pyrimidin-2(1H)-one], in assay [1] (Homo sapiens), the IC50 is 113 nM. Moreover, the “Coupled exchange IC50 (5 min)” value in assay [2] was 0.136 | nda μM.

As for `C=CC(=O)N1CCN(c2nc(=O)n(-c3c(C)ccnc3C(C)C)c3nc(-c4ccccc4F)c(Cl)cc23)C(C(F)(F)F)C1` (single isomer, unassigned) [Example 78-9, (M)-6-chloro-7-(2-fluorophenyl)-1-(4-methyl-2-(2-propanyl)-3-pyridinyl)-4-(4-(2-propenoyl)-2-(trifluoromethyl)-1-piperazinyl)pyrido[2,3-d]pyrimidin-2(1H)-one], the half-maximal inhibitory concentration (IC50) in assay [1] (Homo sapiens, MIA PaCa-2, 2 h) came to 348 nM. Besides, the “Coupled exchange IC50 (5 min)” value in assay [2] was 0.515 | nda μM.

Regarding `C=CC(=O)N1CCN(c2nc(=O)n(-c3c(C#N)cccc3C(C)C)c3nc(-c4ccccc4F)c(Cl)cc23)[C@@H](C)C1` [Example 60-20, 2-(6-chloro-7-(2-fluorophenyl)-4-((2S)-2-methyl-4-(2-propenoyl)-1-piperazinyl)-2-oxopyrido[2,3-d]pyrimidin-1(2H)-yl)-3-(2-propanyl)benzonitrile], in assay [1] (Homo sapiens, MIA PaCa-2, 2 h), the IC50 was found to be 62 nM. Further, the “Coupled exchange IC50 (5 min)” value in assay [2] is reported as 0.053 | nda μM.

With `C=CC(=O)N1CCN(c2nc(=O)n(-c3ccccc3C(C)C)c3cc(-c4ccccc4F)c(Cl)nc23)[C@@H](C)C1` [Example 110, 6-Chloro-7-(2-fluorophenyl)-4-((2S)-2-methyl-4-(2-propenoyl)-1-piperazinyl)-1-(2-(2-propanyl)phenyl)pyrido[3,2-d]pyrimidin-2(1H)-one], in assay [1] (Homo sapiens, MIA PaCa-2, 2 h), the half-inhibitory concentration (IC50) is 426 nM. Also, the “Coupled exchange IC50 (5 min)” value in assay [2] is recorded as 0.166 | nda μM.

For `C=CC(=O)N1CCN(c2nc(=O)n(-c3cncnc3C(C)C)c3nc(-c4c(O)cccc4F)c(Cl)cc23)[C@@H](C)C1` [Example 54-26, 6-chloro-7-(2-fluoro-6-hydroxy-phenyl)-4-((2S)-2-methyl-4-(2-propenoyl)-1-piperazinyl)-1-(4-(2-propanyl)-5-pyrimidinyl) pyrido[2,3-d]pyrimidin-2(1H)-one], the IC50 in assay [1] (Homo sapiens, MIA PaCa-2, 2 h) stood at 220 nM. In assay [2], the “Coupled exchange IC50 (5 min)” value is reported as 0.105 | nda μM.

As to `C=CC(=O)N1CCN(c2nc(=O)n(-c3c(C)cccc3C(C)C)c3nc(-c4nc(N)ccc4Cl)c(Cl)cc23)[C@@H](C)C1` [Example 70-3, 7-(6-amino-3-chloro-2-pyridinyl)-6-chloro-1-(2-methyl-6-(2-propanyl)phenyl)-4-((2S)-2-methyl-4-(2-propenoyl)-1-piperazinyl)pyrido[2,3-d]pyrimidin-2(1H)-one], in assay [1] (Homo sapiens, MIA PaCa-2, 2 h), the half-maximal inhibitory concentration (IC50) amounted to 206 nM. Moreover, the “Coupled exchange IC50 (5 min)” value in assay [2] is listed as 0.125 | nda μM.

For `C=CC(=O)N1CCN(c2nc(=O)n(-c3ccncc3C(C)C)c3nc(-c4c(O)cccc4F)c(Cl)cc23)[C@@H](C)C1` [Example 54-36, 6-chloro-7-(2-fluoro-6-hydroxy-phenyl)-4-((2S)-2-methyl-4-(2-propenoyl)-1-piperazinyl)-1-(3-(2-propanyl)-4-pyridinyl) pyrido[2,3-d]pyrimidin-2(1H)-one], the 50% inhibitory concentration (IC50) in assay [1] (Homo sapiens, MIA PaCa-2, 2 h) turned out to be 158 nM. In addition, the “Coupled exchange IC50 (5 min)” value in assay [2] is listed as 0.149 | nda μM.

With `C=CC(=O)N1CCN(c2nc(=O)n(-c3c(C)ccnc3C(C)C)c3nc(-c4cc(O)cc(Cl)c4Cl)c(F)cc23)[C@@H](C)C1` (single isomer, unassigned) [Example 58-7-1], the IC50 in assay [1] was found to be 1840 nM. Further, in assay [2], the “Coupled exchange IC50 (5 min)” value is 0.335 | nda μM.

As for `C=CC(=O)N1CCN(c2nc(=O)n(-c3ccccc3C(C)C)c3nc(-c4cc(OC(F)F)ccc4F)c(Cl)cc23)[C@@H](C)C1` [Example 54-51, 6-chloro-7-(5-(difluoromethoxy)-2-fluorophenyl)-4-((2S)-2-methyl-4-(2-propenoyl)-1-piperazinyl)-1-(2-(2-propanyl)phenyl)pyrido [2,3-d]pyrimidin-2(1H)-one], the IC50 in assay [1] (Homo sapiens, MIA PaCa-2, 2 h) is 204 nM. The “Coupled exchange IC50 (5 min)” value in assay [2] is listed as 0.265 | nda μM.

On to `C=CC(=O)N1CCN(c2nc(=O)n(-c3c(C(N)=O)cccc3C(C)C)c3nc(-c4ccccc4F)c(Cl)cc23)[C@@H](C)C1` (single isomer, unassigned) [Example 142-2], for which the IC50 in assay [1] (Homo sapiens, MIA PaCa-2, 2 h) worked out at 29 nM. In addition, the “Coupled exchange IC50 (5 min)” value in assay [2] is given as 0.029 | nda μM.

The record behind these values is patent publication US11090304B2 (Amgen Inc., priority 2018, dated 2021).
